The source of these data is patent publication US9763942B2, “Serine/threonine kinase inhibitors” (Array BioPharma Inc., priority 2013, dated 2017).

The target in test [1] is T1, human ERK-2 (Mitogen Activated Kinase 1) (Homo sapiens, UniProt P28482).
T1 construct: n-terminal 6-His fusion protein in E. coli and corresponding to aa 8-360; 6-His (N); made in house; host or cells: E. coli
The test is described as follows: ERK-2 Enzymatic Assay. It is filed as biochemical. An excerpt:
Table 1 contains representative data for Examples disclosed herein.

Test [2] relates to PMA-stimulated P90RSK(Ser380) phosphorylation in HepG2 cells. The test is described as follows: Cellular P90RSK(Ser380) Phosphorylation Assay. As to conditions: Homo sapiens, 1.5 hours compound incubation, PMA 100 ng/mL 30 minutes, pP90RSK(Ser380) signal normalized to GAPDH, single assay or mean of multiple assays, read-out: Biological Example 2 IC50. It is filed as cell-based. On the procedure:
Inhibition of PMA-stimulated P90RSK(Ser380) phosphorylation was determined by the following in vitro cellular mechanistic assay, which comprises incubating cells with a compound for 1.5 hours and quantifying fluorescent pP90RSK(Ser380) signal on fixed cells and normalizing to GAPDH signal.
HepG2 cells were obtained from ATCC and grown in DMEM supplemented with 10% fetal bovine serum. Cells were plated in 96-well plates at 35,000 cells/well and allowed to attach overnight at 37° C./5% CO2. Diluted compounds were then added at a final concentration of 0.5% DMSO. After 1.5 hours compound incubation, cells were stimulated with the addition of phorbol 12-myristate 13-acetate (“PMA”) at a final concentration of 100 ng/mL; the PMA stimulation was a 30-minute incubation at 37° C./5% CO2. After the 30-minute PMA stimulation, cells were washed with phosphate buffered saline (“PBS”) and fixed in 3.7% formaldehyde in PBS at room temperature for 15-20 minutes. This was followed by another wash in PBS and then permeabilization in 100% MeOH at room temperature for 10-15 minutes. Following the permeabilization incubation, cells were washed in PBS/0.05% Tween-20, followed by a block in Odyssey blocking buffer (LI-COR Biosciences) for at least 1 hour. Antibodies to phosphorylated P90RSK(Ser380) (Cell Signaling #9335, rabbit monoclonal) and GAPDH (Fitzgerald 10R-G109a, mouse monoclonal) were added to the cells and incubated overnight at 4° C. pP90RSK(Ser380) antibody was used at a 1:250 dilution; GAPDH was used at a 1:10,000 dilution. After washing with PBS/0.05% Tween-20, the cells were incubated with fluorescently-labeled secondary antibodies (Anti-rabbit-Alexa Flour680, Invitrogen Cat#A21109; Anti-mouse-IRDye800CW, Rockland Inc. Cat#610-131-121) for 1 hour. Both secondary antibodies were used at a 1:1000 dilution. Cells were then washed and analyzed for fluorescence at both wavelengths using the Odyssey Infrared Imaging System (LI-COR Biosciences). Phosphorylated P90RSK(Ser380) signal was normalized to GAPDH signal.

The mark [3] stands for this setting: 5 nM ERK-2 enzyme, 25 μM ATP (observed Km), Omnia peptide S/T17, single assay or mean of multiple assays, read-out: Biological Example 1 IC50.
Where [4] appears, read: ERK-2 enzymatic assay, read-out: IC50.

Where two headings read alike, the source gives them in different places.

T1 sequence (P28482 8-360): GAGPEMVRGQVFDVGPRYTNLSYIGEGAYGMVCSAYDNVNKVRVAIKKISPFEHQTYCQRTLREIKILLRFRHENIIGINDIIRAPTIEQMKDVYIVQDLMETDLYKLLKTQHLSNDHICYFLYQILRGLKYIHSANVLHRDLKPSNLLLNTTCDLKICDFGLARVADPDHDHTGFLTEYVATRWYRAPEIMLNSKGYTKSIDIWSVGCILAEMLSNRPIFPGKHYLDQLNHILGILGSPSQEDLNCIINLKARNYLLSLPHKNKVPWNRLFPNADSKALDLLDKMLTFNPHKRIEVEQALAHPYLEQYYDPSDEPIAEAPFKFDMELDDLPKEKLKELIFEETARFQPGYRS

In the case of `Cn1nccc1Nc1nccc(-c2ccc3c(c2)nnn3Cc2cccc(F)c2F)n1` [Example 1, 4-(1-(2,3-difluorobenzyl)-1H-benzo[1,2,3]triazol-5-yl)-N-(1-methyl-1H-pyrazol-5-yl)pyrimidin-2-amine], the IC50 (commonly the concentration at which inhibition is half-maximal) was 0.9 nM in test [1] (setting [3]), less than 100 nM in test [1] (setting [4]) and 22.7 nM in test [2].
The like results for `COc1ccc(Cn2nnc3cc(-c4ccnc(N[C@@H]5CCOC[C@H]5F)n4)ccc32)cc1F` [Example 6, 4-(1-(3-fluoro-4-methoxybenzyl)-1H-benzoyl[d][1,2,3]triazol-5-yl)-N-((3S,4R)-3-fluorotetrahydro-2H-pyran-4-yl)pyrimidin-2-amine] were, in that order, 2.6 nM, less than 100 nM and 58.2 nM.
The like results for `Cn1nccc1Nc1nccc(-c2ccc3c(c2)nnn3CC2CNC2)n1` [Example 62, 4-(1-(azetidin-3-ylmethyl)-1H-benzo[d][1,2,3]triazol-5-yl)-N-(1-methyl-1H-pyrazol-5-yl)pyrimidin-2-amine] were, in that order, 53.2 nM, less than 100 nM and 1400 nM.
The like results for `COc1ccc([C@@H](c2nccn2C)n2nnc3cc(-c4ccnc(Nc5ccnn5C)n4)ccc32)cc1F` [Example 72, (S)-4-(1-((3-fluoro-4-methoxyphenyl)(1-methyl-1H-imidazol-2-yl)methyl)-1H-benzo[d][1,2,3]triazol-5-yl)-N-(1-methyl-1H-pyrazol-5-yl)pyrimidin-2-amine] were, in that order, 2 nM, less than 100 nM and 3.7 nM.
With `CCOCCCn1nnc2cc(-c3ccnc(Nc4ccnn4C)n3)ccc21` [Example 43, 4-(1-(3-ethoxypropyl)-1H-benzo[d][1,2,3]triazol-5-yl)-N-(1-methyl-1H-pyrazol-5-yl)pyrimidin-2-amine], the IC50 in test [1] (setting [3]) was 5.7 nM; in test [1] (setting [4]) it was less than 100 nM; in test [2], 68.5 nM.
Consider `Cn1nccc1Nc1nccc(-c2ccc3c(c2)nnn3CC2CCC(F)(F)CC2)n1` [Example 33, 4-(1-((4,4-difluorocyclohexyl)methyl)-1H-benzo[d][1,2,3]triazol-5-yl)-N-(1-methyl-1H-pyrazol-5-yl)pyrimidin-2-amine], for which the IC50 was 4 nM in test [1] (setting [3]), less than 100 nM in test [1] (setting [4]) and 63.3 nM in test [2].
On the same counts, the results for `Cc1cccc(Cn2nnc3cc(-c4ccnc(Nc5ccnn5C)n4)ccc32)n1` [Example 58, N-(1-methyl-1H-pyrazol-5-yl)-4-(1-((6-methylpyridin-2-yl)methyl)-1H-benzo[d][1,2,3]triazol-5-yl)pyrimidin-2-amine] are 11.4 nM, less than 100 nM and 437 nM.
On the same counts, the results for `COc1ccc(Cn2nnc3cc(-c4ccnc(Nc5cn(C)nc5C)n4)ccc32)cc1F` [Example 8, N-(1,3-dimethyl-1H-pyrazol-4-yl)-4-(1-(3-fluoro-4-methoxybenzyl)-1H-benzo[d][1,2,3]triazol-5-yl)pyrimidin-2-amine] are 2.9 nM, less than 100 nM and 56.8 nM.
On the same counts, the results for `Cc1ncccc1Cn1nnc2cc(-c3ccnc(Nc4ccnn4C)c3)ccc21` [Example 56, N-(1-methyl-1H-pyrazol-5-yl)-4-(1-((2-methylpyridin-3-yl)methyl)-1H-benzo[d][1,2,3]triazol-5-yl)pyridin-2-amine] are 7.8 nM, less than 100 nM and 781 nM.
On to `CN1CC(n2nnc3cc(-c4ccnc(Nc5ccnn5C)n4)ccc32)C1` [Example 86, N-(1-methyl-1H-pyrazol-5-yl)-4-(1-(1-methylazetidin-3-yl)-1H-benzo[d][1,2,3]triazol-5-yl)pyrimidin-2-amine], for which the values for the IC50 in test [1] (setting [3]), in test [1] (setting [4]) and in test [2] were 2.8 nM, less than 100 nM and 21.8 nM, respectively.
For `Cc1ncccc1Cn1nnc2cc(-c3ccnc(Nc4ccnn4C)n3)ccc21` [Example 53, N-(1-methyl-1H-pyrazol-5-yl)-4-(1-((2-methylpyridin-3-yl)methyl)-1H-benzo[d][1,2,3]triazol-5-yl)pyrimidin-2-amine], in test [1] (setting [4]), the IC50 was less than 100 nM.
Same read-out and setting: the result for `COc1ccc(Cn2nnc3cc(-c4ccnc(NC[C@@H](O)CO)n4)ccc32)cc1F` [Example 20, (R)-3-((4-(1-(3-fluoro-4-methoxybenzyl)-1H-benzo[d][1,2,3]triazol-5-yl)pyrimidin-2-yl)amino)propane-1,2-diol] reads less than 100 nM; that for `COc1ccc([C@@H](c2cnnn2C)n2nnc3cc(-c4ccnc(Nc5ccnn5C)n4)ccc32)cc1F` [Example 71, (S)-4-(l-((3-fluoro-4-methoxyphenyl)(1-methyl-1H-1,2,3-triazol-5-yl)methyl)-1H-benzo[d][1,2,3]triazol-5-yl)-N-(1-methyl-1H-pyrazol-5-yl)pyrimidin-2-amine], less than 100 nM.
The same measure, in the same setting: to `CCC(C)Cn1nnc2cc(-c3ccnc(Nc4cnn(C)n4)n3)ccc21` (centres unmarked) [Example 100, N-(2-methyl-2H-1,2,3-triazol-4-yl)-4-(1-(2-methylbutyl)-1H-benzo[d][1,2,3]triazol-5-yl)pyrimidin-2-amine] belongs less than 100 nM; to `COc1ccc(Cn2nnc3cc(-c4ccnc(NC5CC5)n4)ccc32)cc1F` [Example 15, N-cyclopropyl-4-(1-(3-fluoro-4-methoxybenzyl)-1H-benzo[d][1,2,3]triazol-5-yl)pyrimidin-2-amine], less than 100 nM.
Still for that read-out and setting: the result for `CC(C)Cn1nnc2cc(-c3ccnc(Nc4ccnn4C)n3)ccc21` [Example 38, 4-(1-isobutyl-1H-benzo[d][1,2,3]triazol-5-yl)-N-(1-methyl-1H-pyrazol-5-yl)pyrimidin-2-amine] reads less than 100 nM; that for `Cn1nccc1Nc1nccc(-c2ccc3c(c2)nnn3Cc2ccc(F)c(Cl)c2)n1` [Example 125, 4-(1-(3-chloro-4-fluorobenzyl)-1H-benzo[d][1,2,3]triazol-5-yl)-N-(1-methyl-1H-pyrazol-5-yl)pyrimidin-2-amine], less than 100 nM.
Regarding `Fc1cc(Cn2nnc3cc(-c4ccnc(NC5CCOCC5)n4)ccc32)ccc1Cl` [Example 109, 4-(1-(4-chloro-3-fluorobenzyl)-1H-benzo[d][1,2,3]triazol-5-yl)-N-(tetrahydro-2H-pyran-4-yl)pyrimidin-2-amine], the IC50 in test [1] (setting [4]) was less than 100 nM.
Still for that read-out and setting: to `Cn1nccc1Nc1nccc(-c2ccc3c(c2)nnn3Cc2cccnc2Cl)n1` [Example 66, 4-(1-((2-chloropyridin-3-yl)methyl)-1H-benzo[d][1,2,3]triazol-5-yl)-N-(1-methyl-1H-pyrazol-5-yl)pyrimidin-2-amine] belongs less than 100 nM; to `Cc1cc(-n2nnc3cc(-c4ccnc(Nc5ccnn5C)n4)ccc32)n(-c2ccccn2)n1` [Example 82, 4-(1-(3-methyl-1-(pyridin-2-yl)-1H-pyrazol-5-yl)-1H-benzo[d][1,2,3]triazol-5-yl)-N-(1-methyl-1H-pyrazol-5-yl)pyrimidin-2-amine], less than 100 nM.
On the same count and under the same terms, the result for `Cn1nccc1Nc1nccc(-c2ccc3c(c2)nnn3Cc2ccc(Cl)c(F)c2)n1` [Example 108, 4-(1-(4-chloro-3-fluorobenzyl)-1H-benzo[d][1,2,3]triazol-5-yl)-N-(1-methyl-1H-pyrazol-5-yl)pyrimidin-2-amine] reads less than 100 nM; that for `COC(C)(C)Cn1nnc2cc(-c3ccnc(Nc4ccnn4C)n3)ccc21` [Example 44, 4-(1-(2-methoxy-2-methylpropyl)-1H-benzo[d][1,2,3]triazol-5-yl)-N-(1-methyl-1H-pyrazol-5-yl)pyrimidin-2-amine], less than 100 nM; that for `Cc1cnn(CCn2nnc3cc(-c4ccnc(Nc5ccnn5C)n4)ccc32)c1` [Example 103, 4-(1-(2-(4-methyl-1H-pyrazol-1-yl)ethyl)-1H-benzo[d][1,2,3]triazol-5-yl)-N-(1-methyl-1H-pyrazol-5-yl)pyrimidin-2-amine], less than 100 nM.
The same measure, in the same setting: the result for `Cn1nccc1Nc1nccc(-c2ccc3c(c2)nnn3CC2(C)CCC2)n1` [Example 48, N-(1-methyl-1H-pyrazol-5-yl)-4-(1-((1-methylcyclobutyl)methyl)-1H-benzo[d][1,2,3]triazol-5-yl)pyrimidin-2-amine] reads less than 100 nM.
